Assay results reported in patent US9321773B2, “Compounds” (Respivert Ltd, priority 2009, dated 2016).

Legend:
[1] = tested on: PMA-differentiated U937 cells; test: MTT Assay (cell viability); format: cell-based, Human; settings: percentage loss of cell viability; for Cell Viability MTT Assay in D-U937 cells at 4 hr: 4 hr in 5% FCS; for Cell Viability MTT Assay in D-U937 cells at 24 hr: 24 hr in 10% FCS
Procedure: PMA-differentiated U937 cells were pre-incubated with compound for 4 hr in 5% FCS or 10% FCS for 24 hr. The supernatant was replaced with 200 μL of new media and 10 μL of MTT stock solution (5 mg/ml) added to each well. After 1 hr incubation, the media were removed, 200 μL of DMSO added to each well and the plates were shaken lightly for 1 hr prior to reading the absorbance at 550 nm. The percentage loss of cell viability was calculated for each well relative to vehicle (0.5% DMSO)-treatment (Table 3).

[2] = tested on: H2O2 induced pAkt in D-U937 cells; test: PI3Kδ Cell Based Assay (H2O2 induced pAkt); settings: Homo sapiens, dU937; activity range; D-U937 cells; read-out: Cellular Activity IC50 values (H2O2 induced pAkt D-U937 Cells)
Procedure: As a means of assessing PI3K 6 activation in response to stimuli, the phosphorylation status of the protein, Akt, a downstream product of PI3K6, signaling was determined. Human monocytic cells (U937 cells), were differentiated to macrophage-type cells by incubation with phorbol myristate acetate (PMA; 100 ng/mL) for 48 to 72 hr. […] The cells were washed with buffer (PBS containing 0.1% Triton X-100) and were incubated with blocking solution (1% BSA in PBS) for 1 hr and were then re-washed with buffer and incubated overnight with either anti-pAkt antibody or anti-pan-Akt antibody (both from Cell Signaling Technology). […] This reaction was stopped by addition of 100 μL of 1N H2SO4 solution. […] The ratio of pAkt signal to total Akt signal was used to quantitate the extent of PI3K δ activation. […] The IC50 values were calculated from the concentration-response curves generated by the serial dilutions of the test compounds (Table 3 and Table 4).

recombinant PI3 kinase α = recombinant PI3 kinase α (Homo sapiens (Human), UniProt P42336); test: Enzyme Inhibition Assay (HTRF PI3K enzyme assay, TR-FRET); format: biochemical; settings: activity range; read-out: PI3 Kinase Inhibition IC50 values at stated Isozyme α
recombinant PI3 kinase α, sequence (P42336 whole entry): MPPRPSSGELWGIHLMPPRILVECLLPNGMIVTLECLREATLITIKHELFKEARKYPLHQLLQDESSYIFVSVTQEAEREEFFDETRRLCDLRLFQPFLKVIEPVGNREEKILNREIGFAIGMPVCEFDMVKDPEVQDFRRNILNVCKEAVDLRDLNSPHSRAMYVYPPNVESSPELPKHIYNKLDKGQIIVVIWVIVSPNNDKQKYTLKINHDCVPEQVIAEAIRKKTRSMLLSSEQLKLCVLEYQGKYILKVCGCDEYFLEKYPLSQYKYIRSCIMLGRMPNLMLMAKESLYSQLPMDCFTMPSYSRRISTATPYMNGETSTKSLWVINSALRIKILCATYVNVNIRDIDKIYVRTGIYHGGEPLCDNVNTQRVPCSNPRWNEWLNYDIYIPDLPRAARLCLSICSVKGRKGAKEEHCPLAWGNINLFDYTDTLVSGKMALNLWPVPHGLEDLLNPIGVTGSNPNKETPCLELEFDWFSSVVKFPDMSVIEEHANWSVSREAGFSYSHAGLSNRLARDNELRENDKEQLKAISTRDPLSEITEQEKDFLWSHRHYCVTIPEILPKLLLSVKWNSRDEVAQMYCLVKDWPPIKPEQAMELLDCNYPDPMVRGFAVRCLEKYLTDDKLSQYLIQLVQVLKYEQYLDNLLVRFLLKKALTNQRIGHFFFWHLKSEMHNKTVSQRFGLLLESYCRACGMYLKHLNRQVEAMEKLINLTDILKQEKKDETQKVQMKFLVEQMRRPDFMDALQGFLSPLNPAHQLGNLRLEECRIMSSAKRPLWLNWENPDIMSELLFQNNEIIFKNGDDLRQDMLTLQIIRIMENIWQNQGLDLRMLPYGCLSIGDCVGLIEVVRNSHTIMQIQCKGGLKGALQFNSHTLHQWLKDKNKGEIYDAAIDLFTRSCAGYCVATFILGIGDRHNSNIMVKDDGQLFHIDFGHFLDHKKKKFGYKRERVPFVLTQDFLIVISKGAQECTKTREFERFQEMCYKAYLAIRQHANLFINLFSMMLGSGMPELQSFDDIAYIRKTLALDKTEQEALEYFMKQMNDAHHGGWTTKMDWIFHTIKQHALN
recombinant PI3 kinase α, sequence (P27986 whole entry partner): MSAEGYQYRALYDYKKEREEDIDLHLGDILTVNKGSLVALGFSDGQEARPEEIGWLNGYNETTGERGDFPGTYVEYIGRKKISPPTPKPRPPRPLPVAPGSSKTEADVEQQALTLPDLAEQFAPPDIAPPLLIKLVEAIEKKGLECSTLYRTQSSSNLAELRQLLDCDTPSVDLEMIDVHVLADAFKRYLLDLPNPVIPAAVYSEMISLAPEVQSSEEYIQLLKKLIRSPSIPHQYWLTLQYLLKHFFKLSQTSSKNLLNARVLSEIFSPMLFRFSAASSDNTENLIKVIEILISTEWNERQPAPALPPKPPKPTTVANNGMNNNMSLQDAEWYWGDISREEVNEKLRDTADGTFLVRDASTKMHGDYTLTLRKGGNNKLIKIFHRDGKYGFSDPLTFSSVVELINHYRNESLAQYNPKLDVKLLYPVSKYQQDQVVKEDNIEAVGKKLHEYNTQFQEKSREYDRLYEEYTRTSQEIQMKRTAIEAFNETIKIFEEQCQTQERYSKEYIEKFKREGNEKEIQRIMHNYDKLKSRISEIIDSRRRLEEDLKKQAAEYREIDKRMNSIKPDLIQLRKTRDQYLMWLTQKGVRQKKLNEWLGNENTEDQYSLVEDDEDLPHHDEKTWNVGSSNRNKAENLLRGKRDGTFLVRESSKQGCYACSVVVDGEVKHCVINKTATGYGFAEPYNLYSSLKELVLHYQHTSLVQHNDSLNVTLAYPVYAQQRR
Excerpt: (§1) PI3 kinases catalyse the phosphorylation of phosphatidylinositol 4,5-biphosphate (PIP2) to phosphatidylinositol 3,4,5-triphosphate (PIP3) in the presence of ATP and Mg^2+ ions. The PIP3 product can be detected by displacement of biotin-PIP3 from energy transfer complexes consisting of europium labelled anti-GST monoclonal antibody, a GST-tagged Pleckstrin homology (PH) domain, biotinylated PIP3 and streptavidin-allophycocyanin (APC) by the time-resolved fluorescence resonance energy transfer (TR-FRET) (HTRF® PI3K enzyme assay, Millipore). […] The PIP3 product formed by PI3K activity displaces biotin-PIP3 from the complex and results in a loss of energy transfer (decreasing signal).
(§2) The compound to be tested was added, at the desired final concentrations, to a mixture of PIP2 substrate and recombinant PI3 kinase α, δ or γ enzymes (Millipore), and the mixture incubated for 2 hr at RT. […] A stopping solution containing biotinylated PIP3 and the detection mix containing the GST tagged GRP1 pleckstrin homology (PH) domain and fluorophores were then added and the mixture was incubated at RT for 15-18 hr, prior to detection in a fluorescence microplate reader (Varioskan® Flash, ThermoFisher Scientific).

recombinant PI3 kinase δ = recombinant PI3 kinase δ (Homo sapiens (Human), UniProt O00329); test: as above; format: biochemical; settings: activity range; read-out: PI3 Kinase Inhibition IC50 values at stated Isozyme δ
recombinant PI3 kinase δ, sequence (O00329 whole entry): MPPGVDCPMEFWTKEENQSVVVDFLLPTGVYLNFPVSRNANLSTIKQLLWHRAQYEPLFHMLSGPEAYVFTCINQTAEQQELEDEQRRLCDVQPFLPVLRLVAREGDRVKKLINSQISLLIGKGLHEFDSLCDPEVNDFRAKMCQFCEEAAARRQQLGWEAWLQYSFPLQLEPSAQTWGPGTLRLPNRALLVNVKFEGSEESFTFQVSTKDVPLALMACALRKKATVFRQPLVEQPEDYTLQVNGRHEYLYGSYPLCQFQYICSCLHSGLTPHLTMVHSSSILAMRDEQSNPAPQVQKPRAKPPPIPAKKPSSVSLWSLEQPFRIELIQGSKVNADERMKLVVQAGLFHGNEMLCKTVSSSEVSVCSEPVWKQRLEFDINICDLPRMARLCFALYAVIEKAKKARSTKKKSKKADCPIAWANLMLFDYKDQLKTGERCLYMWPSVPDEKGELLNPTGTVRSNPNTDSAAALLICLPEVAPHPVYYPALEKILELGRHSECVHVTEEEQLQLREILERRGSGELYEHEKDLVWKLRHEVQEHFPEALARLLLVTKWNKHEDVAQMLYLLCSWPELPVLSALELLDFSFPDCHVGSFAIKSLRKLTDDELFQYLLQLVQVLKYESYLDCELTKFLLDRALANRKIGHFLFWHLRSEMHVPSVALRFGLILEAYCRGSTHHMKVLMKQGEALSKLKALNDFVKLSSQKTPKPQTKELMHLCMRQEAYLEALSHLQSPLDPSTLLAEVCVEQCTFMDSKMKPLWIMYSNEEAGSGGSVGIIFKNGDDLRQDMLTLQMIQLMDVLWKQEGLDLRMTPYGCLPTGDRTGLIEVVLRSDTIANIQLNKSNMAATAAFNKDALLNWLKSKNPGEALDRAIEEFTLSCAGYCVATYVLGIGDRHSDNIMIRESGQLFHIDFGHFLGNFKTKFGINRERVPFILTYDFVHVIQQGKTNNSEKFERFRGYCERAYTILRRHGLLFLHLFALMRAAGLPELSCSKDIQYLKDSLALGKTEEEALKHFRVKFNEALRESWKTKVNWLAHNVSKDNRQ
recombinant PI3 kinase δ, sequence (P27986 whole entry partner): as the sequence (P27986 whole entry partner) above
Excerpt: as §1, §2

recombinant PI3 kinase γ = recombinant PI3 kinase γ (Homo sapiens (Human), UniProt P48736); test: as above; format: biochemical; settings: activity range; read-out: PI3 Kinase Inhibition IC50 values at stated Isozyme γ
recombinant PI3 kinase γ, sequence (P48736 whole entry): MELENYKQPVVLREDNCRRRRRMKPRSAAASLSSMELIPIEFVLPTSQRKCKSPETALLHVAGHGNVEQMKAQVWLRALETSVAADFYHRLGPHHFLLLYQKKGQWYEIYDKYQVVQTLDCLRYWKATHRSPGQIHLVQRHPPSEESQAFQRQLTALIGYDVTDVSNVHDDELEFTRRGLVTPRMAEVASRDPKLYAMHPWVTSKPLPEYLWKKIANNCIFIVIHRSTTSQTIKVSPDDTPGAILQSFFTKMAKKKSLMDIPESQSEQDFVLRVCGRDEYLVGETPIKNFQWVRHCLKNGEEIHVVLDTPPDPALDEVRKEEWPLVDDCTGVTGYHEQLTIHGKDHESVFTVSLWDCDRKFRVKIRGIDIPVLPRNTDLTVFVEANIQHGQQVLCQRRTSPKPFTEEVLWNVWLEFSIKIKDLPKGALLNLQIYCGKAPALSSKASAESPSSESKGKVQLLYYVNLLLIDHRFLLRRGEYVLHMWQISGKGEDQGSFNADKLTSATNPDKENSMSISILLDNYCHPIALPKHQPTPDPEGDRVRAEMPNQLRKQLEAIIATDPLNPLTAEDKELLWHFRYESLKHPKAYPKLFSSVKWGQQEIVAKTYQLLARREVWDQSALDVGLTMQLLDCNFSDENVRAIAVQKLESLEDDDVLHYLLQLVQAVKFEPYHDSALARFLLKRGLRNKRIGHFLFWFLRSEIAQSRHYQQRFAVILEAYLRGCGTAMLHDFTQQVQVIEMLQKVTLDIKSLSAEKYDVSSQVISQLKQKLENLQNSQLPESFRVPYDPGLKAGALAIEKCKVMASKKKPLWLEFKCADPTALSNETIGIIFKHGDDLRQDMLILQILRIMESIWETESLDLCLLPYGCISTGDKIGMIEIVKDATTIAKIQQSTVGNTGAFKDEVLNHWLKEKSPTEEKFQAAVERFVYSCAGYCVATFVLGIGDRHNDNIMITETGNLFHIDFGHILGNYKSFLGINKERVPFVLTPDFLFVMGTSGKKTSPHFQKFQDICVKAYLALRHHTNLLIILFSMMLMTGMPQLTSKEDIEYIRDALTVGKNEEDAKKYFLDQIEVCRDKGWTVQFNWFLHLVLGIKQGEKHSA
Excerpt: as §1, §2

Structure (SMILES)	Cell Viability MTT Assay in D-U937 cells at 4 hr [1]	Cell Viability MTT Assay in D-U937 cells at 24 hr [1]	IC50 [2] [nM]	IC50 (recombinant PI3 kinase α) [nM]	IC50 (recombinant PI3 kinase δ) [nM]	IC50 (recombinant PI3 kinase γ) [nM]
COCCOCCOCC#Cc1cccc2nc(Cn3nc(-c4cccc(O)c4)c4c(N)ncnc43)n(Cc3ccccc3Cl)c(=O)c12 [Example 2, 2-((4-Amino-3-(3-hydroxyphenyl)-1H-pyrazolo[3,4-d]pyrimidin-1-yl)methyl)-3-(2-chlorobenzyl)-5-(3-(2-(2-methoxyethoxy)ethoxy)prop-1-yn-1-yl)quinazolin-4(3H)-one]	− (− <30%)	− (− <30%)	< 10	> 1000	–	–
Nc1ncnc2c1c(-c1cccc(O)c1)nn2Cc1nc2cccc(C#CCCCC(=O)N3CCOCC3)c2c(=O)n1Cc1ccccc1Cl [Example 3, 2-((4-Amino-3-(3-hydroxyphenyl)-1H-pyrazolo[3,4-d]pyrimidin-1-yl)methyl)-3-(2-chlorobenzyl)-5-(6-morpholino-6-oxohex-1-yn-1-yl)quinazolin-4(3H)-one]	− (− <30%)	− (− <30%)	< 10	< 50	< 50	< 50
N#Cc1cccc(Cn2c(Cn3nc(-c4cccc(O)c4)c4c(N)ncnc43)nc3cccc(C#CCOCCOCCO)c3c2=O)c1 [Example 6, 3-((2-((4-Amino-3-(3-hydroxyphenyl)-1H-pyrazolo[3,4-d]pyrimidin-1-yl)methyl)-5-(3-(2-(2-hydroxyethoxy)ethoxy)prop-1-yn-1-yl)-4-oxoquinazolin-3(4H)-yl)methyl)benzonitrile]	− (− <30%)	− (− <30%)	< 10	50 to 1000	< 50	50 to 1000
Nc1ncnc2c1c(-c1ccc(O)cc1)nn2Cc1nc2cccc(C#CCCCNC3CCCC3)c2c(=O)n1Cc1ccccc1Cl [Example 7, 2-((4-Amino-3-(4-hydroxyphenyl)-1H-pyrazolo[3,4-d]pyrimidin-1-yl)methyl)-3-(2-chlorobenzyl)-5-(5-(cyclopentylamino)pent-1-ynyl)quinazolin-4(3H)-one]	− (− <30%)	− (− <30%)	< 10	50 to 1000	< 50	50 to 1000
Cc1cnc(Cn2c(Cn3nc(-c4cccc(O)c4)c4c(N)ncnc43)nc3cccc(C#CCCCC(=O)N4CCOCC4)c3c2=O)cn1 [Example 57]	− (− <30%)	− (− <30%)	< 10	–	–	–
CC(=O)NCC(=O)NCC#Cc1cccc2nc(Cn3nc(-c4cccc(O)c4)c4c(N)ncnc43)n(Cc3ccccc3Cl)c(=O)c12 [Example 61, 2-Acetamido-N-(3-(2-((4-amino-3-(3-hydroxyphenyl)-1H-pyrazolo[3,4-d]pyrimidin-1-yl)methyl)-3-(2-chlorobenzyl)-4-oxo-3,4-dihydroquinazolin-5-yl)prop-2-yn-1-yl)acetamide]	− (− <30%)	− (− <30%)	< 10	–	–	–
Nc1ncnc2c1c(-c1ccc(O)cc1)nn2Cc1nc2cccc(C#CCCCC(=O)NC3CCCC3)c2c(=O)n1Cc1ccccc1Cl [Example 74, 6-(2-((4-Amino-3-(4-hydroxyphenyl)-1H-pyrazolo[3,4-d]pyrimidin-1-yl)methyl)-3-(2-chlorobenzyl)-4-oxo-3,4-dihydroquinazolin-5-yl)-N-cyclopentylhex-5-ynamide]	− (− <30%)	− (− <30%)	–	–	< 50	–
Nc1ncnc2c1c(-c1cccc(O)c1)nn2Cc1nc2cccc(C#CCCCC(=O)Nc3ccncc3)c2c(=O)n1Cc1ccccc1Cl [Example 80, 6-(2-((4-Amino-3-(3-hydroxyphenyl)-1H-pyrazolo[3,4-d]pyrimidin-1-yl)methyl)-3-(2-chlorobenzyl)-4-oxo-3,4-dihydroquinazolin-5-yl)-N-(pyridin-4-yl)hex-5-ynamide]	− (− <30%)	− (− <30%)	10 to 1000	–	< 50	–
CN1CCN(CCNC(=O)CCCC#Cc2cccc3nc(Cn4nc(-c5ccc(O)cc5)c5c(N)ncnc54)n(Cc4ccccc4Cl)c(=O)c23)CC1 [Example 84, 6-(2-((4-Amino-3-(4-hydroxyphenyl)-1H-pyrazolo[3,4-d]pyrimidin-1-yl)methyl)-3-(2-chlorobenzyl)-4-oxo-3,4-dihydroquinazolin-5-yl)-N-(2-(4-methylpiperazin-1-yl)ethyl)hex-5-ynamide]	− (− <30%)	− (− <30%)	< 10	–	< 50	–
CN1CCN(CCN(C)C(=O)CCCC#Cc2cccc3nc(Cn4nc(-c5ccc(O)cc5)c5c(N)ncnc54)n(Cc4ccccc4Cl)c(=O)c23)CC1 [Example 85, 6-(2-((4-Amino-3-(4-hydroxyphenyl)-1H-pyrazolo[3,4-d]pyrimidin-1-yl)methyl)-3-(2-chlorobenzyl)-4-oxo-3,4-dihydroquinazolin-5-yl)-N-methyl-N-(2-(4-methylpiperazin-1-yl)ethyl)hex-5-ynamide]	− (− <30%)	− (− <30%)	< 10	–	< 50	–
CC(C)NC(=O)CCCC#Cc1cccc2nc(Cn3nc(-c4cccc(O)c4)c4c(N)ncnc43)n(Cc3ccccc3Cl)c(=O)c12 [Example 87, 6-(2-((4-Amino-3-(3-hydroxyphenyl)-1H-pyrazolo[3,4-d]pyrimidin-1-yl)methyl)-3-(2-chlorobenzyl)-4-oxo-3,4-dihydroquinazolin-5-yl)-N-isopropylhex-5-ynamide]	− (− <30%)	− (− <30%)	< 10	–	< 50	–
CN(C)C1CCN(C(=O)CCCC#Cc2cccc3nc(Cn4nc(-c5cccc(O)c5)c5c(N)ncnc54)n(Cc4ccccc4Cl)c(=O)c23)C1 (stereo not shown) [Example 92, 2-((4-Amino-3-(3-hydroxyphenyl)-1H-pyrazolo[3,4-d]pyrimidin-1-yl)methyl)-3-(2-chlorobenzyl)-5-(6-(3-(dimethylamino)pyrrolidin-1-yl)-6-oxohex-1-ynyl) quinazolin-4(3H)-one]	− (− <30%)	− (− <30%)	10 to 1000	–	< 50	–
CN1CCCN(C(=O)CCCC#Cc2cccc3nc(Cn4nc(-c5cccc(O)c5)c5c(N)ncnc54)n(Cc4ccccc4Cl)c(=O)c23)CC1 [Example 94, 2-((4-Amino-3-(3-hydroxyphenyl)-1H-pyrazolo[3,4-d]pyrimidin-1-yl)methyl)-3-(2-chlorobenzyl)-5-(6-(4-methyl-1,4-diazepan-1-yl)-6-oxohex-1-ynyl)quinazolin-4(3H)-one]	− (− <30%)	− (− <30%)	10 to 1000	–	50 to 1000	–
